Experimental data: patent US7713701B2, “DNA-binding polymers” (California Institute of Technology, priority 2004, dated 2010)
Values joined by “and” are separate entries in the source; they are usually repeats but may differ in a detail not shown here. Equal values may be shown once.

How the values were obtained:
[1] = system: four binding sites 5′-A T N T A C A-3′, N=T, A, G, C, of pCW15 PCR product; experiment: DNase I footprinting, sequence specificity across the four sites; conditions: comparison of affinities for the four Watson-Crick base pairs
Method: (§1) Oligonucleotide primers SF1 (5′-AATTC-GAGCTCGGTACCGGGG-3′; SEQ ID NO:1) and SF2(5′-[…]-3′; SEQ ID NO:2) were synthesized by the Biopolymer Synthesis Center at the California Institute of Technology. Products from PCR amplification of the pCW15 using 5′-[γ-^32P]-labeled SF1 and SF2 were purified on a 7% non-denaturing polyacrylamide gel. Glycogen (20 mg/mL), dNTPs (PCR nucleotide mix), and all enzymes, unless otherwise stated, were purchased from Boehringer-Mannheim. Deoxyadenosine [γ-^32P]triphosphate was obtained from ICN. Calf thymus DNA (sonicated, deproteinized) and DNase I (7500 units/mL. FPLC pure) were from Amersham Pharmacia. AmpliTaq DNA polymerase was obtained from Perkin-Elmer and was used with provided buffers. Tris.HCl, DTT, RNase-free water, and 0.5 M EDTA were from United States Biochemical. Calcium chloride, potassium chloride, and magnesium chloride were purchased from Fluka. Tris-borate-EDTA was from GIBCO and bromophenol blue was from Acros. All reagents were used without further purification.
(§2) The DNA sequence specificity of novel thiophene-2-carboxamide-containing polymers (DNA-binding polymers 1-8) was evaluated by comparing their affinities for each Watson-Crick base pair to those of N-methylimidazole (Im) and N-methylpyrrole (Py) (DNA-binding polymers 9-10). […] Affinities were determined using DNase I footprinting, as performed by standard protocols (e.g., Trauger et al., Methods Enzymol. 2001, 340, 450).
(§3) Briefly, Quantitative DNase I footprinting titration experiments (10 mM Tris-HCl. 10 mM KCl, 10 mM MgC2, 5 mM CaCl2, pH 7.0, 22° C.) were performed on 5′-^32P end-labeled, 285 bp PCR product from plasmid construct pCW15 (as described previously in Ellervik et al., J. Am. Chem. Soc. 2000, 122, 9354). This plasmid contains four binding sites that vary at a single N-terminal position, 5′-A T N T A C A-3′, where N=T, A, G, C. The divergent behavior of control DNA-binding polymers 9 and 10 illustrates the need for development of new N-terminal residues.

[2] = system: G-C base pair at N-terminal position, binding site 5′-A T G T A C A-3′, 285 bp PCR product from plasmid pCW15; experiment: Quantitative DNase I footprint titration, G-C site; conditions: for Equilibrium association constant, G-C: DNase I footprint titration, 22° C., pH 7.0, 10 mM Tris-HCl, 10 mM KCl, 10 mM MgCl2, 5 mM CaCl2, mean of at least three, SD in parentheses
Method: as §1, §2, §3

[3] = system: T-A base pair at N-terminal position of binding site 5′-A T N T A C A-3′ (N=T), 285 bp PCR product from plasmid pCW15; experiment: Quantitative DNase I footprint titration, T-A site; conditions: for Equilibrium association constant, T-A: DNase I footprint titration, 22° C., pH 7.0, 10 mM Tris-HCl, 10 mM KCl, 10 mM MgCl2, 5 mM CaCl2, mean of at least three, SD in parentheses; for preference / specificity for T-A relative to G-C / selectivity for T-A relative to A-T: ratio of association constants
Method: as §1, §2, §3

[4] = system: A-T base pair at N-terminal position of binding site 5′-A T N T A C A-3′ (N=A), 285 bp PCR product from plasmid pCW15; experiment: Quantitative DNase I footprint titration, A-T site; conditions: 22° C., pH 7.0, 10 mM Tris-HCl, 10 mM KCl, 10 mM MgCl2, 5 mM CaCl2, mean of at least three, SD in parentheses
Method: as §1, §2, §3

[5] = system: C-G base pair at N-terminal position of binding site 5′-A T N T A C A-3′ (N=C), 285 bp PCR product from plasmid pCW15; experiment: Quantitative DNase I footprint titration, C-G site; conditions: 22° C., pH 7.0, 10 mM Tris-HCl, 10 mM KCl, 10 mM MgCl2, 5 mM CaCl2, mean of at least three, SD in parentheses
Method: as §1, §2, §3

Equilibrium association constant, G-C [2]	Equilibrium association constant, T-A [3]	Equilibrium association constant, A-T [4]	Equilibrium association constant, C-G [5]	preference / specificity for T-A relative to G-C [3]	selectivity for T-A relative to A-T [3]	preference for G-C relative to T-A, A-T, and C-G base pairs ([2]; ratio of association constants)	SMILES	sequence specificity (in words) [1]
4.3 (0.4) × 10^8 M^−1	6.0 (0.7) × 10^9 M^−1	4.7 (0.7) × 10^9 M^−1	2.2 (0.3) × 10^9 M^−1	–	–	–	CN(C)CCCNC(=O)CCNC(=O)c1cc(NC(=O)c2cc(NC(=O)c3cc(NC(=O)c4nc(NC(=O)CCCNC(=O)c5cc(NC(=O)c6cc(NC(=O)c7cc(NC(=O)c8cccs8)cn7C)cn6C)cn5C)cn4C)cn3C)cn2C)cn1C [compound 1]	little sequence specificity
1.0 (0.4) × 10^7 M^−1	2.3 (0.4) × 10^9 M^−1	1.4 (0.2) × 10^9 M^−1	1.0 (0.3) × 10^7 M^−1	140 fold	–	–	Cc1ccsc1C(=O)Nc1cc(C(=O)Nc2cc(C(=O)Nc3cc(C(=O)NCCCC(=O)Nc4cn(C)c(C(=O)Nc5cc(C(=O)Nc6cc(C(=O)Nc7cc(C(=O)NCCC(=O)NCCCN(C)C)n(C)c7)n(C)c6)n(C)c5)n4)n(C)c3)n(C)c2)n(C)c1 [compound 2]	–
7.8 (0.9) × 10^8 M^−1	6.3 (1.0) × 10^9 M^−1	4.6 (0.6) × 10^9 M^−1	2.2 (0.3) × 10^8 M^−1	–	–	–	CN(C)CCCNC(=O)CCNC(=O)c1cc(NC(=O)c2cc(NC(=O)c3cc(NC(=O)c4nc(NC(=O)CCCNC(=O)c5cc(NC(=O)c6cc(NC(=O)c7cc(NC(=O)c8sccc8N)cn7C)cn6C)cn5C)cn4C)cn3C)cn2C)cn1C [compound 3]	distinguish T-A from G-C but again do not distinguish T-A from A-T
6.6 (0.4) × 10^8 M^−1	5.9 (0.3) × 10^9 M^−1	2.9 (0.1) × 10^9 M^−1	6.0 (0.2) × 10^8 M^−1	–	–	–	CC(=O)Nc1ccsc1C(=O)Nc1cc(C(=O)Nc2cc(C(=O)Nc3cc(C(=O)NCCCC(=O)Nc4cn(C)c(C(=O)Nc5cc(C(=O)Nc6cc(C(=O)Nc7cc(C(=O)NCCC(=O)NCCCN(C)C)n(C)c7)n(C)c6)n(C)c5)n4)n(C)c3)n(C)c2)n(C)c1 [compound 4]	distinguish T-A from G-C but again do not distinguish T-A from A-T
2.1 (0.3) × 10^8 M^−1	6.2 (0.6) × 10^9 M^−1	4.5 (0.6) × 10^9 M^−1	8.4 (0.1) × 10^7 M^−1	–	–	–	CN(C)CCCNC(=O)CCNC(=O)c1cc(NC(=O)c2cc(NC(=O)c3cc(NC(=O)c4nc(NC(=O)CCCNC(=O)c5cc(NC(=O)c6cc(NC(=O)c7cc(NC(=O)c8sccc8O)cn7C)cn6C)cn5C)cn4C)cn3C)cn2C)cn1C [compound 5]	distinguish T-A from G-C but again do not distinguish T-A from A-T
≦1.0 × 10^7 M^−1	2×10^9 M^−1 and 2.0 (0.4) × 10^9 M^−1	3.2 (0.6) × 10^8 M^−1	≦1.0 × 10^7 M^−1	> 200 fold	6 fold	–	COc1ccsc1C(=O)Nc1cc(C(=O)Nc2cc(C(=O)Nc3cc(C(=O)NCCCC(=O)Nc4cn(C)c(C(=O)Nc5cc(C(=O)Nc6cc(C(=O)Nc7cc(C(=O)NCCC(=O)NCCCN(C)C)n(C)c7)n(C)c6)n(C)c5)n4)n(C)c3)n(C)c2)n(C)c1 [compound 6]	–
3.7 (0.4) × 10^8 M^−1	1.2 (0.2) × 10^10 M^−1	3.9 (0.3) × 10^9 M^−1	2.9 (0.3) × 10^8 M^−1	–	3 fold	–	CN(C)CCCNC(=O)CCNC(=O)c1cc(NC(=O)c2cc(NC(=O)c3cc(NC(=O)c4nc(NC(=O)CCCNC(=O)c5cc(NC(=O)c6cc(NC(=O)c7cc(NC(=O)c8sccc8F)cn7C)cn6C)cn5C)cn4C)cn3C)cn2C)cn1C [compound 7]	–
3.1 (0.6) × 10^8 M^−1	1.3 (0.2) × 10^10 M^−1	3.7 (0.2) × 10^9 M^−1	2.1 (1.1)× 10^8 M^−1	–	3 fold	–	CN(C)CCCNC(=O)CCNC(=O)c1cc(NC(=O)c2cc(NC(=O)c3cc(NC(=O)c4nc(NC(=O)CCCNC(=O)c5cc(NC(=O)c6cc(NC(=O)c7cc(NC(=O)c8sccc8Cl)cn7C)cn6C)cn5C)cn4C)cn3C)cn2C)cn1C [compound 8]	–
–	3.8 (0.3) × 10^9 M^−1	2.8 (0.2) × 10^9 M^−1	3.2 (0.4) × 10^9 M^−1	–	–	> 15 fold	CN(C)CCCNC(=O)CCNC(=O)c1cc(NC(=O)c2cc(NC(=O)c3cc(NC(=O)c4nc(NC(=O)CCCNC(=O)c5cc(NC(=O)c6cc(NC(=O)c7cc(NC(=O)c8nccn8C)cn7C)cn6C)cn5C)cn4C)cn3C)cn2C)cn1C [compound 9]	–
1.1 (0.1) × 10^9 M^−1	5.1 (0.6) × 10^9 M^−1	3.1 (0.3) × 10^9 M^−1	2.6 (0.3) × 10^8 M^−1	–	–	–	CN(C)CCCNC(=O)CCNC(=O)c1cc(NC(=O)c2cc(NC(=O)c3cc(NC(=O)c4nc(NC(=O)CCCNC(=O)c5cc(NC(=O)c6cc(NC(=O)c7cc(NC(=O)c8cccn8C)cn7C)cn6C)cn5C)cn4C)cn3C)cn2C)cn1C [compound 10]	little sequence specificity
